In article PMC6757289, “Design and Characterization of SGK3-PROTAC1, an Isoform Specific SGK3 Kinase PROTAC Degrader” (ACS Chemical Biology, 2019):
Read-outs that look alike come from different tables or passages of the source.

Columns and labels:
Experiment in all cases: kinase profiling panel
Assay type in all cases: biochemical
Settings in all cases: read-out: % Activity Remaining
Aurora A = target: T1, Aurora A (Homo sapiens, UniProt O14965)
T1 sequence (O14965 1-403): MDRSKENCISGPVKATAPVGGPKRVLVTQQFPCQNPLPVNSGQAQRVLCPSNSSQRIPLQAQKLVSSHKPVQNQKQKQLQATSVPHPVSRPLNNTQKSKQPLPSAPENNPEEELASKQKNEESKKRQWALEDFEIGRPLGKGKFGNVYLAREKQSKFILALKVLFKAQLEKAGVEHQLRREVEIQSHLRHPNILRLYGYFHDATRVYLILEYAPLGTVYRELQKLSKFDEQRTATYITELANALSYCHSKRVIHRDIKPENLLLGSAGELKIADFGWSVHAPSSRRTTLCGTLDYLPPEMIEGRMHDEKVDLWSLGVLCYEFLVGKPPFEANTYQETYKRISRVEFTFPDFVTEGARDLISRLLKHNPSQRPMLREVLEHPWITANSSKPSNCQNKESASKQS
From the text: (§1) Protein kinase profiling against a Dundee panel of 140 protein kinases was undertaken at the International Centre for Protein Kinase Profiling. The result for each kinase was presented as a mean kinase activity of the reaction taken in triplicate relative to a control sample treated with DMSO. Assay conditions and abbreviations are available at http://www.kinase-screen.mrc.ac.uk.

PRAK = target: T2, PRAK (Homo sapiens, UniProt Q8IW41)
T2 sequence (Q8IW41 1-473): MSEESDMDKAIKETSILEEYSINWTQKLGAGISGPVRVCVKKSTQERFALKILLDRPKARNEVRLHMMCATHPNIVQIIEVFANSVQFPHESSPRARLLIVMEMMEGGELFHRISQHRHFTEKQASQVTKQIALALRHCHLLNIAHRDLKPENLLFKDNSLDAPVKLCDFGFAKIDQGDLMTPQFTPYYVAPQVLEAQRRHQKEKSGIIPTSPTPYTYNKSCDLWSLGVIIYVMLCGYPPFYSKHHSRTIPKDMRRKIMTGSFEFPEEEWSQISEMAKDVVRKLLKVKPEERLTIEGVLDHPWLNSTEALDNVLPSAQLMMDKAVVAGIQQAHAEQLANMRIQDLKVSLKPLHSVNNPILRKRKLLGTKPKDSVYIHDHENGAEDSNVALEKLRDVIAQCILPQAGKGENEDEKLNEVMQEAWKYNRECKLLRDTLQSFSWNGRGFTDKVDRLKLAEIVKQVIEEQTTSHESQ
From the text: as §1

BRK = BRK (Homo sapiens, UniProt Q13882)
From the text: as §1

JNK3 = JNK3 (Homo sapiens, UniProt P53779)
From the text: as §1

PIM1 = PIM1 (Homo sapiens, UniProt P11309)
From the text: as §1

PDGFRA = PDGFRA (Homo sapiens, UniProt P16234)
From the text: as §1

ULK1 = target: T3, ULK1 (Homo sapiens, UniProt O75385)
T3 sequence (O75385 1-1050): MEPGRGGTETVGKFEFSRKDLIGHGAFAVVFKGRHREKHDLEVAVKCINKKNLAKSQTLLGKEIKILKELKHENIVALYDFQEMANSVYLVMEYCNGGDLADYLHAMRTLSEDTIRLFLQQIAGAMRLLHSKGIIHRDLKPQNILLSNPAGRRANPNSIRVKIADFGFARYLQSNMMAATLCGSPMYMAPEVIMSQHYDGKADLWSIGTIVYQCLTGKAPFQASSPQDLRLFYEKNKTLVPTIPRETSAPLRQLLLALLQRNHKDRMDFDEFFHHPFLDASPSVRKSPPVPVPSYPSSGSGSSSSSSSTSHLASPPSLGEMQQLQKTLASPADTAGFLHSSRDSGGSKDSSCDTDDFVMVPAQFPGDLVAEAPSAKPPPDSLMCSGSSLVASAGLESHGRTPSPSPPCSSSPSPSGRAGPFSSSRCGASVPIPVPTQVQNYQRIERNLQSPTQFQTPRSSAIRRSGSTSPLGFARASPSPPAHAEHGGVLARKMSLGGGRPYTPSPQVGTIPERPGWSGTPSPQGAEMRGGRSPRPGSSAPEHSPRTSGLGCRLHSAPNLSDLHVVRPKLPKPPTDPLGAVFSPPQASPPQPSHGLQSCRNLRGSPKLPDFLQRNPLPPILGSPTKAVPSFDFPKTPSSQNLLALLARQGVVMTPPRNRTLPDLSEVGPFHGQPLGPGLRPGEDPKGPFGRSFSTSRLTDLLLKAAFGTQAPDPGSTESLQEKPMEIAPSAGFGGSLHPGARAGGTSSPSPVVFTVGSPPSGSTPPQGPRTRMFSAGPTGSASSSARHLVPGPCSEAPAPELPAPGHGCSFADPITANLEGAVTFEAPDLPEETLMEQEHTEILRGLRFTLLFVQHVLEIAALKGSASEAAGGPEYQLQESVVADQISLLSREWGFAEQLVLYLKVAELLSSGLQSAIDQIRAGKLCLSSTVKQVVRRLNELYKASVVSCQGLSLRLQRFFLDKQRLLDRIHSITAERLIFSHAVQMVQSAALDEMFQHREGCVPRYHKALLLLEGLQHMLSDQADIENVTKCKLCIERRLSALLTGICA
From the text: as §1

PKA = PKA (Homo sapiens, UniProt P17612)
From the text: as §1

RSK1 = RSK1 (Homo sapiens, UniProt Q15418)
From the text: as §1

SIK3 = SIK3 (Homo sapiens, UniProt Q9Y2K2)
From the text: as §1

TESK1 = TESK1 (Homo sapiens, UniProt Q15569)
From the text: as §1

Chain of TESK1 (Q15569 whole entry): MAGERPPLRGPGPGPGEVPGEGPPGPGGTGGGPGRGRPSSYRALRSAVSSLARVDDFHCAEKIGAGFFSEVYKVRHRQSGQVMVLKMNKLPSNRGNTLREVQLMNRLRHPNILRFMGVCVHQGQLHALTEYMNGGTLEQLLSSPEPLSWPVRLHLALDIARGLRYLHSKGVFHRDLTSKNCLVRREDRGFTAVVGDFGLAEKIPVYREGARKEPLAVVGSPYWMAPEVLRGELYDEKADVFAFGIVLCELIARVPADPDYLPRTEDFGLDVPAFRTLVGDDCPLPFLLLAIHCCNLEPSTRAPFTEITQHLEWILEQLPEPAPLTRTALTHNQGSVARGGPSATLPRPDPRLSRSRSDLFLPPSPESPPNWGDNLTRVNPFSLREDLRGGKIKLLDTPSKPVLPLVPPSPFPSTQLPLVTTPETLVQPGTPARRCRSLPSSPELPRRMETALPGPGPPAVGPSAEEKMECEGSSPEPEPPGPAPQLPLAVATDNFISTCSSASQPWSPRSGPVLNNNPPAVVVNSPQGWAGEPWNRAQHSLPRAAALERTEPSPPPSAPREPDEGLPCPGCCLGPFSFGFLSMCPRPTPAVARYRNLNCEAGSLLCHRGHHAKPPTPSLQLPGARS
Chain of PDGFRA (P16234 24-1089): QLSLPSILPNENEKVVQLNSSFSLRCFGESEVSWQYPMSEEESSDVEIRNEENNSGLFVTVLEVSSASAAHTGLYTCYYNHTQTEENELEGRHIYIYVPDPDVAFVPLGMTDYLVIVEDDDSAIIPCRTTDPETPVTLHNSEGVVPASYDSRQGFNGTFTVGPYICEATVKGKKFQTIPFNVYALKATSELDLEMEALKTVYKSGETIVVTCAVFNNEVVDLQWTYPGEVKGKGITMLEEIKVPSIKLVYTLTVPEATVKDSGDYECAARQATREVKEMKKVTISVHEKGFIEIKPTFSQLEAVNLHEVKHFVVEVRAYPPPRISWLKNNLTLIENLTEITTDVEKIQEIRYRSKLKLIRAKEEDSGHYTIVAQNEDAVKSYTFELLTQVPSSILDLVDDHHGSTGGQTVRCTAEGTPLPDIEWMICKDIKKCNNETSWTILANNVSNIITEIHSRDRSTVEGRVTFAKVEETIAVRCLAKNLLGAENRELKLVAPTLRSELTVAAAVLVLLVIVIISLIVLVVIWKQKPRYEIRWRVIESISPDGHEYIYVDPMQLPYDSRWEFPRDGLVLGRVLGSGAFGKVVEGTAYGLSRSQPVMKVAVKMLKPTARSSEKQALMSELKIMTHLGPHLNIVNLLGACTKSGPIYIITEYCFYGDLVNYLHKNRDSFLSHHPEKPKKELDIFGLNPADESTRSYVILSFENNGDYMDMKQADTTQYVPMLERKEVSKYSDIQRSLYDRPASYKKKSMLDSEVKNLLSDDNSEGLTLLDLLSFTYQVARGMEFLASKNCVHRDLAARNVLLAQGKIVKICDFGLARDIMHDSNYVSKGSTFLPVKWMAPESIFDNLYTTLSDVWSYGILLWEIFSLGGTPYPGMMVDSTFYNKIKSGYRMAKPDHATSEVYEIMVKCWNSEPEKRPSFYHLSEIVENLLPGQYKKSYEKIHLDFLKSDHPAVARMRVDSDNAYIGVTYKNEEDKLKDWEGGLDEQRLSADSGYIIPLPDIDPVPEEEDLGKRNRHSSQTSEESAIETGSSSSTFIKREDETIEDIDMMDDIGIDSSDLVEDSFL
Chain of PIM1 (P11309 whole entry): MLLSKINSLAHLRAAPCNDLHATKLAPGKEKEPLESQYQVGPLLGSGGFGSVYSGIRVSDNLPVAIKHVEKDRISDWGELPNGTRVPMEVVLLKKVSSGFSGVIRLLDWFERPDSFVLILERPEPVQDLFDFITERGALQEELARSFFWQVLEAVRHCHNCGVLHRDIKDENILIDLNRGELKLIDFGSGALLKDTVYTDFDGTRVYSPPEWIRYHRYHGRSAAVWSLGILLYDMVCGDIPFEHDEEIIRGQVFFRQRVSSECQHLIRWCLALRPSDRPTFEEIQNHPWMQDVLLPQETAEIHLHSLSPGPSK
Chain of SIK3 (Q9Y2K2 whole entry): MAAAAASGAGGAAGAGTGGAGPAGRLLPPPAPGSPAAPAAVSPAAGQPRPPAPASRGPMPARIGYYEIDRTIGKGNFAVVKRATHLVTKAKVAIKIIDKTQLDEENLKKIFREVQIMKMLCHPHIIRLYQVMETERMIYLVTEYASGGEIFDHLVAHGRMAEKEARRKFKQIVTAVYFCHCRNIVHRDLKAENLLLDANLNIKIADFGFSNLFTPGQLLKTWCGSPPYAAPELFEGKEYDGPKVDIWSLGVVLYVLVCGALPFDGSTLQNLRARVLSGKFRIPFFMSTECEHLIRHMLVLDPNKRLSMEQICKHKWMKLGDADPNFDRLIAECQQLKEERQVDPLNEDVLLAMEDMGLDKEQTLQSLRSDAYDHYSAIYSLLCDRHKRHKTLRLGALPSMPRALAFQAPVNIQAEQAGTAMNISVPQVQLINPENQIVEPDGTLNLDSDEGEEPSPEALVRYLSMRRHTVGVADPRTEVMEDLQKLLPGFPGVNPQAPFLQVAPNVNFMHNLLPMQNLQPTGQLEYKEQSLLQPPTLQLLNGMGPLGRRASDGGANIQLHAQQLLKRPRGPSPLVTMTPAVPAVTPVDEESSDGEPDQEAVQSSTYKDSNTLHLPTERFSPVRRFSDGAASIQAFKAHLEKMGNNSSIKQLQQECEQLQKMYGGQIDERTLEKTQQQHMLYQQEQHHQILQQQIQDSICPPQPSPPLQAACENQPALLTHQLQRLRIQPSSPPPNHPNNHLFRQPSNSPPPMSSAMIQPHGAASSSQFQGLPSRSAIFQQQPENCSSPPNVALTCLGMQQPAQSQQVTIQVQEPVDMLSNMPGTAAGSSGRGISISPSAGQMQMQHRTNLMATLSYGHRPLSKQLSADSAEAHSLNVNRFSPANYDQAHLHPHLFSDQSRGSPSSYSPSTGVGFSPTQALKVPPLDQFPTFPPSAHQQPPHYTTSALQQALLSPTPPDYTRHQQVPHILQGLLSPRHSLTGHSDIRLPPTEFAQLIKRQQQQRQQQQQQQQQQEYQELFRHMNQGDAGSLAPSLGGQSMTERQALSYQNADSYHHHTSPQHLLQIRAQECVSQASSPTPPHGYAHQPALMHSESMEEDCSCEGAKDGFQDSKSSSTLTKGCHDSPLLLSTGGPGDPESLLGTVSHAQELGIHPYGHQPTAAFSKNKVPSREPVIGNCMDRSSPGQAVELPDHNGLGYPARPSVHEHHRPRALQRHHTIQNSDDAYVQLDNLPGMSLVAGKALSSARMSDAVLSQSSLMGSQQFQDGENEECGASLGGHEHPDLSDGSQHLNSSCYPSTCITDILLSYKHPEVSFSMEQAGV
Chain of JNK3 (P53779 whole entry): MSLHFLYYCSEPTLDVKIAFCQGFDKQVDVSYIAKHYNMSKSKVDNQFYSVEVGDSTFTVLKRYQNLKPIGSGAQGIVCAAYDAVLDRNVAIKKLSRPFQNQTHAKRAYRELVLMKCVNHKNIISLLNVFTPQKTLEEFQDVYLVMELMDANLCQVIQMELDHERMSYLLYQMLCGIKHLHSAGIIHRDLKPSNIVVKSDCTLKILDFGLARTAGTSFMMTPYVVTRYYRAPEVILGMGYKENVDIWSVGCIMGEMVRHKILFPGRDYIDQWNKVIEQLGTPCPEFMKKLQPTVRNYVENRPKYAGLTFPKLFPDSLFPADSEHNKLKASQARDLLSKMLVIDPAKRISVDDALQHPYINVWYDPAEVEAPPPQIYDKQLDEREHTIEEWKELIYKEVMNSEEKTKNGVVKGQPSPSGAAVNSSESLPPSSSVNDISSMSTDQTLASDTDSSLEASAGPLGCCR
Chain of RSK1 (Q15418 whole entry): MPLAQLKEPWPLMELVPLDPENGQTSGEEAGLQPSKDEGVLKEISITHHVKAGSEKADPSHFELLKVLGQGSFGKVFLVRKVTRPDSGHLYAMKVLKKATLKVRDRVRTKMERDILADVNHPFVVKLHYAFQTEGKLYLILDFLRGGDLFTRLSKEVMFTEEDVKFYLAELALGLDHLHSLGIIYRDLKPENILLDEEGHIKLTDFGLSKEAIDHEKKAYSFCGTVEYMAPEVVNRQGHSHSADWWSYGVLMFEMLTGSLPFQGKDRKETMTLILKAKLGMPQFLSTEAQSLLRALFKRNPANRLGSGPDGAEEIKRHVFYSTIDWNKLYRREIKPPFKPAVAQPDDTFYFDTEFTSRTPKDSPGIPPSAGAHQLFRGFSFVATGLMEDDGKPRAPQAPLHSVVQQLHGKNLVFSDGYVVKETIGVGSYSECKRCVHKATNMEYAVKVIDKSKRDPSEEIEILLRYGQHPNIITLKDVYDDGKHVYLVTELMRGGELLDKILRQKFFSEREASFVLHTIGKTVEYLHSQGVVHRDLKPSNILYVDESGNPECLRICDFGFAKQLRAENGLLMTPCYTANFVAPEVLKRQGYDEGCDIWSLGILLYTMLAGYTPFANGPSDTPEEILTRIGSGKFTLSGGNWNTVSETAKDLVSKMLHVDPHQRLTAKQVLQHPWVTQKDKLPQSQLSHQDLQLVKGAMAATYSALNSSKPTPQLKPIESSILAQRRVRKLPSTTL
Chain of BRK (Q13882 whole entry): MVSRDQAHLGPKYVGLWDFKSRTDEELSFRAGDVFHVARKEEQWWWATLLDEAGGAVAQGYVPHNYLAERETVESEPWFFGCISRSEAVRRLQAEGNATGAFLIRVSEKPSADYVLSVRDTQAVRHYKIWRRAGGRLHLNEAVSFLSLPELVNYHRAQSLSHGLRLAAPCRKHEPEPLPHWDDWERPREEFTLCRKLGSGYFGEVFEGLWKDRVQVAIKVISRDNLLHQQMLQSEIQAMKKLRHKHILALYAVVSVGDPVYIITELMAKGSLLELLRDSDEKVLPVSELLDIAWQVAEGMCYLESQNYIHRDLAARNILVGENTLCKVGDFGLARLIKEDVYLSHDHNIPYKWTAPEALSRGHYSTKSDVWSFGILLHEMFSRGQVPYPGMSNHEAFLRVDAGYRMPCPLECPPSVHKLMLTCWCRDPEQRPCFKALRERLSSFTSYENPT

SMILES: Cc1ccc(F)c(S(=O)(=O)Nc2ccc(-c3nc(OC[C@H]4CN(CCCCCCOCCOCCOCC(=O)N[C@H](C(=O)N5C[C@H](O)C[C@H]5C(=O)NCc5ccc(-c6scnc6C)cc5)C(C)(C)C)CCO4)c4cn[nH]c4n3)cc2)c1 [SGK3-PROTAC1]
- remaining activity at 1 µM (Aurora A; 1 µM): 90%
- remaining activity at 1 µM (PRAK; 1 µM): 115%
- remaining activity at 1 µM (BRK; 1 µM): 87%
- remaining activity at 1 µM (JNK3; 1 µM): 92%
- remaining activity at 1 µM (PIM1; 1 µM): 94%
- remaining activity at 1 µM (PDGFRA; 1 µM): 101%
- remaining activity at 1 µM (ULK1; 1 µM): 116%
- remaining activity at 1 µM (PKA; 1 µM): 108%
- remaining activity at 1 µM (RSK1; 1 µM): 83%
- remaining activity at 1 µM (SIK3; 1 µM): 79%
- remaining activity at 1 µM (TESK1; 1 µM): 122%

SMILES: Cc1ccc(F)c(S(=O)(=O)Nc2ccc(-c3nc(OC[C@H]4CNCCO4)c4cn[nH]c4n3)cc2)c1 [308-R, reference compound]
- remaining activity at 1 µM (Aurora A): 109%
- remaining activity at 1 µM (PRAK): 86%
- remaining activity at 1 µM (BRK): 86%
- remaining activity at 1 µM (JNK3): 112%
- remaining activity at 1 µM (PIM1): 104%
- remaining activity at 1 µM (PDGFRA): 115%
- remaining activity at 1 µM (ULK1): 103%
- remaining activity at 1 µM (PKA): 106%
- remaining activity at 1 µM (RSK1): 7%
- remaining activity at 1 µM (SIK3): 69%
- remaining activity at 1 µM (TESK1): 69%

SMILES: COc1ccc(Cl)c(S(=O)(=O)Nc2ccc(-c3nc(OC[C@H]4CNCCO4)c4c(C)n[nH]c4n3)cc2)c1 [290-R, reference compound]
- remaining activity at 1 µM (Aurora A): 108%
- remaining activity at 1 µM (PRAK): 78%
- remaining activity at 1 µM (BRK): 113%
- remaining activity at 1 µM (JNK3): 104%
- remaining activity at 1 µM (PIM1): 83%
- remaining activity at 1 µM (PDGFRA): 91%
- remaining activity at 1 µM (ULK1): 78%
- remaining activity at 1 µM (PKA): 85%
- remaining activity at 1 µM (RSK1): 7%
- remaining activity at 1 µM (SIK3): 102%
- remaining activity at 1 µM (TESK1): 77%

SMILES: Cc1ccc(F)c(S(=O)(=O)Nc2ccc(-c3nc(OC[C@H]4CN(CCCCCCOCCOCCOCC(=O)N[C@H](C(=O)N5C[C@@H](O)C[C@H]5C(=O)NCc5ccc(-c6scnc6C)cc5)C(C)(C)C)CCO4)c4cn[nH]c4n3)cc2)c1 [cisSGK3-PROTAC1]
- remaining activity at 1 µM (Aurora A; 1 µM): 91%
- remaining activity at 1 µM (PRAK; 1 µM): 119%
- remaining activity at 1 µM (BRK; 1 µM): 105%
- remaining activity at 1 µM (JNK3; 1 µM): 83%
- remaining activity at 1 µM (PIM1; 1 µM): 97%
- remaining activity at 1 µM (PDGFRA; 1 µM): 95%
- remaining activity at 1 µM (ULK1; 1 µM): 112%
- remaining activity at 1 µM (PKA; 1 µM): 111%
- remaining activity at 1 µM (RSK1; 1 µM): 90%
- remaining activity at 1 µM (SIK3; 1 µM): 117%
- remaining activity at 1 µM (TESK1; 1 µM): 120%
